Tests used:
[1] = system: DNA T (matricial DNA separated from sound tissues); experiment: synthesis in vitro of DNA on a matrix of check DNA (DNA T) with DNA-polymerase, radioactive acidoprecipitable DNA measured; format: biochemical; conditions: for replication of DNA-T (amount of radioactive DNA 3H synthetised): as a function of the amount of substance in the reactional medium (0 to 100 μg in 0.15 ml), 10 minutes at 36° C., FIG. 1, 3, 4; for replication of DNA-T separated from sound breast tissues: breast tissue DNA, FIG. 6; for replication of DNA taken on check tissues such as lung or liver tissues: lung or liver tissue DNA
Source text: (§1) According to the invention, there is provided a method in which there is observed, in measuring the radioactive acidoprecipitable DNA, the synthesis of DNA on a matrix of DNA separated from sound tissues on the one hand, and on a matrix of DNA separated from cancerous tissues on the other hand, in a medium comprising four desoxyribonucleoside-5'-triphosphates, one of which is radioactive, and one enzyme DNA-polymerase, with the substance to be tested and without it.
(§2) For carrying into effect the test, which in itself is very short, it is necessary to hold several preparations, previously and carefully proven, of matricial DNA separated from sound tissues (check tissue, hereinafter referenced to as DNA T) and of matricial DNA separated from cancerous tissues (hereinafter referenced to as DNA C).
The preparations of DNA T are obtained in the same manner by using as raw material sound tissues separated from various human or animal organs, or from sound cells cultivated "in vitro" in a suitable medium.
(§3) For each test, it is necessary to hold at least four couples of matricial DNA of different origins, each couple being formed by an DNA T preparation and an DNA C preparation originating from the same organ, of the same animal kind. For example, there is used at least four couples selected among the following: DNA T and DNA C separated from lung tissue; DNA T and DNA C separated from breast tissue; DNA T and DNA C separated from ovary tissue; DNA T of primary cells of monkey kidney (RS), or of "Vero" cells, or of "SIRC" cells in culture and DNA C of KB cells or Hela cells, or L cells in culture.
(§4) For separating DNA, either from sound tissues or from cancerous tissues, there is used a modified conventional method of separation and purification (J. Narmur, J. Mol. Biol. 3 208, 1961). When a cancerous tissue or a tumour is used, the neighbouring sound or questionable tissues must first be discarded, and reciprocally, the sound tissues must be free from any questionable tissues.
(§5) Immediately after exeresis, the tissue is either frozen at -20° C., or finely crushed in a kneading machine, in the presence of a buffer 2 SSC (containing 17.4 g of NaCl and 10.7 g of trisodic citrate for 1 liter of sterile distilled water) in a sterile aqueous solution (1 to 3 ml of buffer according to the volume of tissue) and of a final concentration of 0.2% in laurylsulphate (by adding an aqueous mother solution of laurylsulphate at 20%).
(§6) In order to get rid of the proteins and to keep the DNA, several extractions are made in the presence of buffer 2 SSC and phenol (solution containing 10% of water), followed by extractions with chloroform and by centrifugations according to the conventional technique of separation and purification of DNA. The DNA present in the aqueous phases is precipitated in 96° alcohol, picked up with a glass rod, solved in a little volume of 1 SSC, then treated by the pancreatic ribonucleases and T1, what requires a whole supplementary cycle of repurification with phenol, then with chloroform. The DNA is dialysed against a solution of 2 SSC (24 hours at 4° C.), dosed by absorption in ultraviolet and stored frozen at -20° C., several months if necessary. Before use, the DNA is once more dialysed during several hours against sterile distilled water.
(§7) The DNA is characterized by its absorbance in ultraviolet at 260 nm and 280 nm. The typical ratio 260/280 varies from 2.0 to 2.1 according to the preparation. The content of the ARN in proteins varies from 0.3 to 0.6% and the content in polyribonucleotids having resisted the action of nucleases and contaminating the DNA is between 1 and 3%. The RNA (ribonucleic acid) can be eliminated by degradation by KOH 0.3 M (final concentration) during 16 hours at 36° C., and the DNA is then dialysed and stored as hereinabove mentioned. […]

[2] = system: DNA C (matricial DNA separated from cancerous tissues); experiment: synthesis in vitro of DNA on a matrix of cancerous DNA (DNA C) with DNA-polymerase, radioactive acidoprecipitable DNA measured; format: biochemical; conditions: for replication of DNA-C (amount of radioactive DNA 3H synthetised): as a function of the amount of substance in the reactional medium (0 to 100 μg in 0.15 ml), 10 minutes at 36° C., FIG. 1, 3, 4; for replication of DNA-C separated from cancerous breast tissues: breast tissue DNA, FIG. 6; for replication of DNA taken on cancerous tissues such as lung or liver tissues: lung or liver tissue DNA
Source text: as §1, §2
The DNA C preparations are obtained by using as raw material various cancerous tissues or tumours taken on a human or animal organ, such as breast, lung, ovary, neuro-carcinome, ascites, etc. It is also possible to use cultures of cancerous cells such as KB or Hela cells, etc.
as §3, §4, §5, §6, §7

[3] = between 0,005 and 0,01 ml of acridine orange (0.1 mg/ml) in the medium, FIG. 2

replication of DNA-T separated from sound breast tissues [1] | replication of DNA taken on check tissues such as lung or liver tissues [1] | replication of DNA-C separated from cancerous breast tissues [2] | replication of DNA taken on cancerous tissues such as lung or liver tissues [2] | SMILES | replication of DNA-T (amount of radioactive DNA 3H synthetised) [1] | replication of DNA-C (amount of radioactive DNA 3H synthetised) [2] | further results
– | – | – | – | O=C(O)c1cccnc1 [Nicotinic acid] | neutral | neutral | –
– | – | – | – | CN(C)c1ccc2cc3ccc(N(C)C)cc3nc2c1 [acridine orange] | – | – | synthesis of DNA-T [1, 3]: slows down the synthesis; replication of check DNA ([1]; high concentrations): toxic and inhibit; replication of DNA-C ([2]; 0.005 ml acridine orange (0.1 mg/ml) in the medium, compared with DNA-T, FIG. 2): stimulation of DNA-C replication is clearly stronger than that of DNA-T; synthesis of DNA-C [2, 3]: slows down the synthesis; replication of cancerous DNA ([2]; high concentrations): toxic and inhibit
stimulate weakly | no effect | very strongly | no effect | C[C@]12CC[C@@H]3c4ccc(O)cc4CC[C@H]3[C@@H]1CC[C@@H]2O [estradiol] | – | – | –
stimulate weakly | no effect | very strongly | no effect | C[C@]12CC[C@@H]3c4ccc(O)cc4CC[C@H]3[C@@H]1CCC2=O [estrone] | – | – | –
– | – | – | – | C1CNCCN1 [piperazine] | neutral | neutral | –
– | – | – | – | c1cc[n+]2c(c1)-c1cccc[n+]1CC2 [Diquat, ethylene-1,1-bipyridilium-2,2-dibromid] | inhibition non selective | inhibition non selective | –
